For five compounds, EC50, Kd and fraction unbound results are on record in patent publication US9175045B2, “Peptidomimetic macrocycles” (Aileron Therapeutics, Inc., priority 2008, dated 2015).

pEC50, pKd: −log10 of the molar value. Numbered stars: 1 amine (or outer) side, 2 acyl side, 3 side chain; on linkers, the order of the positions; unused ones are H or OH. Bridge positions count the residues as written; N and C are the ends. Square brackets hold non-standard residues; d marks the D form. Peptide text beside a SMILES is read from it. ξ: configuration not given here. ξαMeNle(6-ylidene) = CC(CCCC=[*:3])(N[*:1])C(=O)[*:2]

One data set has as its system Jurkat cell line. The data set is classed as cell-based. The conditions noted are these: 24 h. In short, it runs like this: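 Jurkat E6-1 cells in Opti-MEM, serum-free or with 2% or 10% human serum, were treated 24 h at 37° C. with crosslinked polypeptides: final 0.6-20 μM serum-free, 3.125-100 μM with serum. Viability measured by CellTiter-Glo luminescence; Triton X-100 and DMSO-only wells served as controls.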

Another data set has as its target human serum proteins. In words: Apparent affinity to human serum proteins (Kd*) by EC50 shift analysis. The data set is classed as in vitro ADME. The conditions noted are these: nonlinear regression of EC50 shift with serum, n = 1, P = 700 μM for 100% serum. The gist of the method: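 Kd* fitted by nonlinear regression of EC50 shifts across increasing serum concentrations. Shift attributed entirely to HSA (P = 700 µM at 100% serum, 70 µM at 10%), with 1:1 binding stoichiometry fixed. Whole-blood EC′50 estimated with P = 700 µM.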

The nature of data set [1]: Estimated free fraction in blood, calculated from Kd* with [HSA]total 700 μM. It counts as in vitro ADME. The conditions noted are these: human; [HSA]total set at 700 μM; read-out: Free Fraction est. in blood. As to the method:
The free fraction in blood is estimated per the following equation, as derived by Trainor, Expert Opin. Drug Disc., 2007, 2(1):51-64, where [HSA]total is set at 700 μM. [formula]

On to `CC[C@H](C)[C@H](NC(C)=O)C(=O)N[C@@H](Cc1c[nH]c2ccccc12)C(=O)N[C@H](C(=O)N[C@@H](C)C(=O)N[C@@H](CCC(N)=O)C(=O)N[C@@H](C)C(=O)N[C@@H](CC(C)C)C(=O)N[C@@H](CCCNC(=N)N)C(=O)NC1(C)CCCC=CCCCC(C)(C(=O)N[C@@H](Cc2ccccc2)C(=O)N[C@@H](CC(N)=O)C(=O)N[C@@H](C)C(=O)N[C@@H](Cc2ccc(O)cc2)C(=O)N[C@@H](Cc2ccc(O)cc2)C(=O)N[C@@H](C)C(=O)N[C@@H](CCCNC(=N)N)C(=O)N[C@@H](CCCNC(=N)N)C(N)=O)NC(=O)[C@H](CC(=O)O)NC(=O)CNC(=O)[C@H]([C@@H](C)CC)NC1=O)[C@@H](C)CC` (stereo partly drawn) [Compound 12, Ac-IWIAQALR$IGD$FNAYYARR-NH2], for which the pEC50 in the data set with Jurkat cell line was 5.89. In addition, the pKd on human serum proteins is 5.64. For the same compound, the fraction unbound in data set [1] is 0.0038.

As to `CC[C@H](C)[C@H](NC(=O)[C@H](Cc1c[nH]c2ccccc12)NC(=O)[C@H](CCCNC(=N)N)NC(C)=O)C(=O)N[C@@H](C)C(=O)N[C@@H](CCC(N)=O)C(=O)N[C@@H](CCC(N)=O)C(=O)N[C@@H](CC(C)C)C(=O)N[C@@H](CCCNC(=N)N)C(=O)NC1(C)CCCC=CCCCC(C)(C(=O)N[C@@H](Cc2ccccc2)C(=O)N[C@@H](CC(N)=O)C(=O)N[C@@H](C)C(=O)N[C@@H](Cc2ccc(O)cc2)C(=O)N[C@@H](Cc2ccc(O)cc2)C(=O)N[C@@H](C)C(=O)N[C@@H](CCCNC(=N)N)C(=O)N[C@@H](CCCNC(=N)N)C(N)=O)NC(=O)[C@H](CC(=O)O)NC(=O)CNC(=O)[C@H]([C@@H](C)CC)NC1=O` (stereo partly drawn) [Compound 13, Ac-RWIAQQLR$IGD$FNAYYARR-NH2], in the data set on Jurkat cell line, the pEC50 was 5.82. For the same compound, the pKd on human serum proteins is 5.42. Further, in data set [1], the fraction unbound was 0.0063.

For `CC[C@H](C)[C@H](NC(=O)[C@H](Cc1c[nH]c2ccccc12)NC(=O)[C@H](CCCNC(=N)N)NC(C)=O)C(=O)N[C@@H](C)C(=O)N[C@@H](CCC(N)=O)C(=O)N[C@@H](C)C(=O)N[C@@H](CC(C)C)C(=O)N[C@@H](CCCNC(=N)N)C(=O)NC1(C)CCCC=CCCCC(C)(C(=O)N[C@@H](Cc2ccccc2)C(=O)N[C@@H](CC(N)=O)C(=O)N[C@@H](C)C(=O)N[C@@H](Cc2ccc(O)cc2)C(=O)N[C@@H](Cc2ccc(O)cc2)C(=O)N[C@@H](C)C(=O)N[C@@H](CCCNC(=N)N)C(=O)N[C@@H](CCCNC(=N)N)C(N)=O)NC(=O)[C@H](CC(N)=O)NC(=O)CNC(=O)[C@H]([C@@H](C)CC)NC1=O` (stereo partly drawn) [Compound 15, Ac-RWIAQALR$1GN$FNAYYARR-NH2], the pEC50 in the data set with Jurkat cell line was 6.05. Also, the pKd on human serum proteins was 5.29. Further, in data set [1], the fraction unbound is 0.0084.

Consider `CC[C@H](C)[C@H](NC(C)=O)C(=O)N[C@@H](Cc1c[nH]c2ccccc12)C(=O)N[C@H](C(=O)N[C@@H](C)C(=O)N[C@@H](CCC(N)=O)C(=O)N[C@@H](C)C(=O)N[C@@H](CC(C)C)C(=O)N[C@@H](CCCNC(=N)N)C(=O)NC1(C)CCCC=CCCCC(C)(C(=O)N[C@@H](Cc2ccccc2)C(=O)N[C@@H](CC(N)=O)C(=O)N[C@@H](C)C(=O)N[C@@H](Cc2ccc(O)cc2)C(=O)N[C@@H](Cc2ccc(O)cc2)C(=O)N[C@@H](C)C(=O)N[C@@H](CCCNC(=N)N)C(=O)N[C@@H](CCCNC(=N)N)C(N)=O)NC(=O)[C@H](CC(N)=O)NC(=O)CNC(=O)[C@H]([C@@H](C)CC)NC1=O)[C@@H](C)CC` (stereo partly drawn) [Compound 16, Ac-IWIAQALR$IGN$FNAYYARR-NH2], for which the pEC50 in the data set on Jurkat cell line is 6.30. Further, the pKd on human serum proteins is 5.46. In data set [1], the fraction unbound was 0.0058.

Regarding `CC[C@H](C)[C@H](NC(=O)[C@H](CCCNC(=N)N)NC(=O)[C@H](CCCNC(=N)N)NC(=O)[C@H](CCCNC(=N)N)NC(=O)[C@H](CC(C)C)NC(=O)[C@H](C)NC(C)=O)C(=O)NC1(C)CCCC=CCCCC(C)(C(=O)N[C@@H](Cc2c[nH]cn2)C(=O)N[C@@H](Cc2c[nH]cn2)C(=O)N[C@@H](CO)C(=O)N[C@H](C(N)=O)[C@@H](C)O)NC(=O)[C@H](C)NC(=O)[C@H](CS)NC(=O)[C@H](CC(C)C)NC1=O` (stereo partly drawn) [Compound 19, Ac- ALRRRI$LCA$HHST-NH2] (Ac-ALRRRI[ξαMeNle(6-ylidene)]LCA[ξαMeNle(6-ylidene)]HHST-NH2; staple 7-11), the pEC50 with Jurkat cell line is 5.62. Besides, at human serum proteins, the pKd was 6.22. Further, in data set [1], the fraction unbound was 0.001.
